Experimental data: patent publication US8871754B2, “Compounds and compositions for the treatment of parasitic diseases” (IRM LLC, priority 2012, dated 2014)

Test system: P. falciparum (NF54 or 3D7 strain) in infected human erythrocytes
Assay: Assay for P. falciparum proliferation in infected human blood cells (SYBR Green)
Type: cell-based
Settings: Plasmodium falciparum, Erythrocyte; NF54 or 3D7 strain, 72 hours, SYBR Green fluorescence; read-out: EC50 (nM), inhibitory efficacy in delaying P. falciparum proliferation in infected human blood cells
Procedure: Assay for P. falciparum Proliferation in Infected Human Blood Cells
Compounds of the invention can be assayed to measure their capacity to inhibit proliferation of P. falciparum parasitemia in infected red blood cells. This parasite proliferation assay measures the increase in parasite DNA content using a DNA intercalating dye, SYBR Green® (INVITROGEN®) which has a high affinity for double stranded DNA.
NF54 or 3D7 P. falciparum strain is grown in complete culturing media until parasitemia reaches 3% to 8% with O+ human erythrocytes. […] 20 μl of screening media is dispensed into 384 well assay plates. 50 nl of compounds of the invention (in DMSO), including antimalarial controls (mefloquine, pyrimethamine and artemisinin), are then transferred into the assay plates, as well as DMSO alone to serve as a negative control for inhibition. Then 30 μl of a suspension of a NF54 or 3D7 P. falciparum infected erythrocytes in screening media is dispensed into the assay plates such that the final hematocrit is 2.5% with a final parasitemia of 0.3%. The plates are placed in a 37° C. incubator for 72 hours in a low oxygen environment containing 93% N2, 4% CO2, and 3% O2 gas mixture. 10 μl of lysis buffer (saponin, triton-X, EDTA) containing a 10× solution of SYBR Green I® in RPMI media is dispensed into the plates. The plates are lidded and kept at room temperature overnight for the lysis of the infected red blood cells. The fluorescence intensity is measured (excitation […], emission 530 nm) using the Envision™ system (Perkin Elmer). The percentage inhibition of 50%, […], is calculated for each compound.

Row | Compound | EC50
1 | CN(C(=O)c1ccn2ncc(-c3ccc(C(N)=O)cc3)c2c1)C1CCC(C#N)CC1 (centres unmarked) [Example 82, 3-(4-carbamoylphenyl)-N-(4-cyanocyclohexyl)-N-methylpyrazolo[1,5-a]pyridine-5-carboxamide] | 1160 nM
2 | CNC(=O)c1ccc(-c2cnn3ccc(C(=O)N4CCOc5cc(F)ccc54)cc23)cc1 [Example 73, 4-(5-(7-fluoro-3,4-dihydro-2H-benzo[b][1,4]oxazine-4-carbonyl)pyrazolo[1,5-a]pyridin-3-yl)-N-methylbenzamide] | > 10000 nM
3 | CN(C(=O)c1ccc(C2CC2)nc1)c1ccn2ncc(-c3ccc(C(F)(F)F)cc3)c2c1 [Example 49, 6-cyclopropyl-N-methyl-N-(3-(4-(trifluoromethyl)phenyl)pyrazolo[1,5-a]pyridin-5-yl)nicotinamide] | 2290 nM
4 | CN(C(=O)c1ccn2ncc(-c3cnc(N)nc3)c2c1)c1ccc(C#N)cc1 [Example 83, 3-(2-aminopyrimidin-5-yl)-N-(4-cyanophenyl)-N-methylpyrazolo[1,5-a]pyridine-5-carboxamide] | 4 nM
5 | CN(C(=O)c1ccc(C(F)(F)F)cn1)c1ccn2ncc(-c3ccc(C(F)(F)F)cc3)c2c1 [Example 38, N-methyl-5-(trifluoromethyl)-N-(3-(4-(trifluoromethyl)phenyl)pyrazolo[1,5-a]pyridine-5-yl)picolinamide] | 179 nM
6 | CN(C(=O)c1ccn2ncc(-c3cnc(N)c(C#N)c3)c2c1)c1ccc(C#N)cn1 [Example 85, 3-(6-amino-5-cyanopyridin-3-yl)-N-(5-cyanopyridin-2-yl)-N-methylpyrazolo[1,5-a]pyridine-5-carboxamide] | 16 nM
7 | Cc1cc(-c2cnn3ccc(C(=O)N(C)c4ccc(C#N)cc4)cc23)cc(C)c1N [Example 80, 3-(4-amino-3,5-dimethylphenyl)-N-(4-cyanophenyl)-N-methylpyrazolo[1,5-a]pyridine-5-carboxamide] | 824 nM
8 | CN(C(=O)c1ccn2ncc(-c3ccc(N)cc3)c2c1)c1ccc(C#N)cc1 [Example 42, 3-(4-aminophenyl)-N-(4-cyanophenyl)-N-methylpyrazolo[1,5-a]pyridine-5-carboxamide] | 18 nM
9 | CN(C(=O)c1ccn2ncc(-c3ccc(C(F)(F)F)cn3)c2c1)c1ccc(C#N)cc1 [Example 24, N-(4-cyanophenyl)-N-methyl-3-(5-(trifluoromethyl)109yridine-2-yl)pyrazolo[1,5-a]pyridine-5-carboxamide] | 10 nM
10 | CN(C(=O)c1ccn2ncc(-c3ccc(C(F)(F)F)cc3)c2c1)c1ccc(F)cc1 [Example 4, N-(4-fluorophenyl)-N-methyl-3-(4-(trifluoromethyl)phenyl)pyrazolo[1,5-a]pyridine-5-carboxamide] | 46 nM
11 | Fc1ccc(CNc2ccn3ncc(-c4ccc(C(F)(F)F)cc4)c3c2)cc1 [Example 35, N-(4-fluorobenzyl)-3-(4-(trifluoromethyl)phenyl)pyrazolo[1,5-a]pyridine-5-amine] | 2040 nM
12 | Fc1ccc(SCc2ccn3ncc(-c4ccc(C(F)(F)F)cc4)c3c2)cc1 [Example 21, 5-(((4-fluorophenyl)thio)methyl)-3-(4-(trifluoromethyl)phenyl)pyrazolo[1,5-a]pyridine] | 472 nM
13 | CC(C)[C@H](N)C(=O)Nc1ccc(-c2cnn3ccc(C(=O)N(C)c4ccc(C#N)cc4)cc23)cc1 [Example 45, (S)-3-(4-(2-amino-3-methylbutanamido)phenyl)-N-(4-cyanophenyl)-N-methylpyrazolo[1,5-a]pyridine-5-carboxamide] | 16 nM
14 | CN(c1ccn2ncc(-c3ccc(C(F)(F)F)cc3)c2c1)S(=O)(=O)c1ccc(C#N)cc1 [Example 30, 4-cyano-N-methyl-N-(3-(4-(trifluoromethyl)phenyl)pyrazolo[1,5-a]pyridine-5-yl)benzenesulfonamide] | 62 nM
15 | Cc1ccc(N(C)Cc2ccn3ncc(-c4ccc(C(F)(F)F)cc4)c3c2)nc1 [Example 7, N,5-dimethyl-N-((3-(4-(trifluoromethyl)phenyl)pyrazolo[1,5-a]101yridine-5-yl)methyl)pyridine-2-amine] | 975 nM
16 | CNC(=O)c1ccc(-c2cnn3ccc(C(=O)N(c4ccc(C#N)cn4)C4COC4)cc23)cc1 [Example 76, N-(5-cyanopyridin-2-yl)-3-(4-(methylcarbamoyl)phenyl)-N-(oxetan-3-yl)pyrazolo[1,5-a]pyridine-5-carboxamide] | 82 nM

Row | Compound | EC50
17 | Fc1ccc(OCc2ccn3ncc(-c4ccc(C(F)(F)F)cc4)c3c2)cc1 [Example 8, 5-((4-fluorophenoxy)methyl)-3-(4-(trifluoromethyl)phenyl)pyrazolo[1,5-a]pyridine] | 532 nM
18 | Cc1cncc(N(C)C(=O)c2ccn3ncc(-c4ccc(C(F)(F)F)cc4)c3c2)c1 [Example 14, N-methyl-N-(5-methylpyridin-3-yl)-3-(4-(trifluoromethyl)phenyl)pyrazolo[1,5-a]pyridine-5-carboxamide] | 134 nM
19 | NC(=O)c1ccc(-c2cnn3ccc(C(=O)N4CCOc5cc(F)ccc54)cc23)cc1 [Example 71, 4-(5-(7-fluoro-3,4-dihydro-2H-benzo[b][1,4]oxazine-4-carbonyl)pyrazolo[1,5-a]pyridin-3-yl)benzamide] | 3 nM
20 | CN(C(=O)c1ccn2ncc(-c3ccc(C(F)(F)F)cc3)c2c1)c1ccc(C(F)(F)F)cn1 [Example 33, N-methyl-3-(4-(trifluoromethyl)phenyl)-N-(5-(trifluoromethyl)pyridine-2-yl)pyrazolo[1,5-a]pyridine-5-carboxamide] | 59 nM
21 | CN(C(=O)c1ccc(C(C)(F)F)nc1)c1ccn2ncc(-c3ccc(C(F)(F)F)cc3)c2c1 [Example 48, 6-(1,1-difluoroethyl)-N-methyl-N-(3-(4-(trifluoromethyl)phenyl)pyrazolo[1,5-a]pyridin-5-yl)nicotinamide] | 288 nM
22 | CN(C(=O)c1ccn2ncc(-c3cnc4[nH]ccc4c3)c2c1)c1ccc(S(C)(=O)=O)cn1 [Example 58, N-methyl-N-(5-(methylsulfonyl)pyridin-2-yl)-3-(1H-pyrrolo[2,3-b]pyridin-5-yl)pyrazolo[1,5-a]pyridine-5-carboxamide] | 30 nM
23 | CN(C(=O)c1ccn2ncc(-c3ccc(NC(=O)[C@@H](N)C4CCCCC4)cc3)c2c1)c1ccc(C#N)cc1 [Example 46, (S)-3-(4-(2-amino-2-cyclohexylacetamido)phenyl)-N-(4-cyanophenyl)-N-methylpyrazolo[1,5-a]pyridine-5-carboxamide] | 18 nM
24 | CN(C(=O)c1ccc(Cl)cc1)c1ccn2ncc(-c3ccc(C(F)(F)F)cc3)c2c1 [Example 55, 4-chloro-N-methyl-N-(3-(4-(trifluoromethyl)phenyl)pyrazolo[1,5-a]pyridin-5-yl)benzamide] | 32 nM
25 | COc1cc(-c2cnn3ccc(C(=O)N(C)c4ccc(C#N)cn4)cc23)cnc1N [Example 88, 3-(6-amino-5-methoxypyridin-3-yl)-N-(5-cyanopyridin-2-yl)-N-methylpyrazolo[1,5-a]pyridine-5-carboxamide] | 83 nM
26 | COc1ccc(-c2cnn3ccc(C(=O)N(C)c4ccc(C#N)cn4)cc23)nc1 [Example 60, N-(5-cyanopyridin-2-yl)-3-(5-methoxypyridin-2-yl)-N-methylpyrazolo[1,5-a]pyridine-5-carboxamide] | 683 nM
27 | C[C@H](N)C(=O)Nc1ccc(-c2cnn3ccc(C(=O)N(C)c4ccc(C#N)cc4)cc23)cc1 [Example 26, (S)-3-(4-(2-aminopropanamido)phenyl)-N-(4-cyanophenyl)-N-methylpyrazolo[1,5-a]pyridine-5-carboxamide] | 22 nM
28 | CNc1nnc(-c2ccc(-c3cnn4ccc(N(C)C(=O)c5ccc(F)cc5)cc34)cc2)s1 [Example 57, 4-fluoro-N-methyl-N-(3-(4-(5-(methylamino)-1,3,4-thiadiazol-2-yl)phenyl)pyrazolo[1,5-a]pyridin-5-yl)benzamide] | 4 nM
29 | Cc1ccc(OCc2ccn3ncc(-c4ccc(C(F)(F)F)cc4)c3c2)nc1 [Example 15, 5-(((5-methylpyridin-2-yl)oxy)methyl)-3-(4-(trifluoromethyl)phenyl)pyrazolo[1,5-a]pyridine] | 2320 nM
30 | CN(C(=O)c1ccc(S(C)(=O)=O)cc1)c1ccn2ncc(-c3ccc(C(F)(F)F)cc3)c2c1 [Example 52, N-methyl-4-(methylsulfonyl)-N-(3-(4-(trifluoromethyl)phenyl)pyrazolo[1,5-a]pyridin-5-yl)benzamide] | 13 nM
31 | CN(C(=O)c1ccc(C(F)(F)F)nc1)c1ccn2ncc(-c3ccc(C(F)(F)F)cc3)c2c1 [Example 37, N-methyl-6-(trifluoromethyl)-N-(3-(4-(trifluoromethyl)phenyl)pyrazolo[1,5-a]pyridine-5-yl)nicotinamide] | 121 nM
32 | CC(=O)Nc1ccc(-c2cnn3ccc(C(=O)N(C)c4ccc(C#N)cn4)cc23)cc1 [Example 69, 3-(4-acetamidophenyl)-N-(5-cyanopyridin-2-yl)-N-methylpyrazolo[1,5-a]pyridine-5-carboxamide] | 13 nM
